≈ marks a conversion by molar mass, not a printed value.
Experiments:
Rattus norvegicus [1] = test: Ulcerogenecity in Rattus norvegicus Wistar albino (rat) stomach assessed as ulcer index administered 200 mg/kg, ip qd for 3 days measured on day 4 (reference value: 0.13 +/- 0.05 no unit); type: ADME, organism-based; design: dose 200 mg/kg, route intraperitoneal; settings: in vivo, 72 h
Micrococcus luteus = test: Antibacterial activity against Micrococcus luteus ATCC 4698 assessed as growth inhibition after 24 hr by agar streak dilution method; type: functional; settings: ATCC 4698, 24 h
Mus musculus [2] = test: Analgesic activity in Mus musculus […] albino (mouse) at 20 mg/kg, po measured at 30 min by tail flick test (reference value: 4 +/- 0.72%)
Rattus norvegicus [3] = test: Anti-inflammatory activity in Rattus norvegicus Wistar (rat) assessed as protection against carrageenan-induced paw edema at 10 mg/kg, po measured at 1 hr by plethysmographic analysis (reference value: 6 +/- 0.63%); type: functional
Klebsiella pneumoniae = test: Antibacterial activity against Klebsiella pneumoniae ATCC 11298 assessed as growth inhibition after 24 hr by agar streak dilution method; type: functional; settings: ATCC 11298, 24 h
Aspergillus niger = test: Antifungal activity against Aspergillus niger ATCC 9029 assessed as growth inhibition after 48 hr by agar streak dilution method; type: functional; settings: ATCC 9029, 48 h
Rattus norvegicus [4] = test: Anti-inflammatory activity in Rattus norvegicus Wistar (rat) assessed as protection against carrageenan-induced paw edema at 10 mg/kg, po measured at 3 hr by plethysmographic analysis (reference value: 4 +/- 0.75%); type: functional
Rattus norvegicus [5] = test: Anti-inflammatory activity in Rattus norvegicus Wistar (rat) assessed as protection against carrageenan-induced paw edema at 20 mg/kg, po measured at 1 hr by plethysmographic analysis (reference value: 6 +/- 0.63%); type: functional
Bacillus cereus = test: Antibacterial activity against Bacillus cereus ATCC 11778 assessed as growth inhibition after 24 hr by agar streak dilution method; type: functional; settings: ATCC 11778, 24 h
Mus musculus [6] = test: Analgesic activity in Mus musculus […] albino (mouse) at 10 mg/kg, po measured at 2 hr by tail flick test (reference value: 6 +/- 0.84%)
Rattus norvegicus [7] = test: Ulcerogenecity in Rattus norvegicus Wistar albino (rat) stomach assessed as ulcer index administered 20 mg/kg, ip qd for 3 days measured on day 4 relative to diclofenac; type: ADME, organism-based; design: dose 20 mg/kg, route intraperitoneal; settings: in vivo, 72 h
Rattus norvegicus [8] = test: Anti-inflammatory activity in Rattus norvegicus Wistar (rat) assessed as protection against carrageenan-induced paw edema at 20 mg/kg, po measured at 2 hr by plethysmographic analysis (reference value: 5 +/- 0.41%); type: functional
Rattus norvegicus [9] = test: Anti-inflammatory activity in Rattus norvegicus Wistar (rat) assessed as protection against carrageenan-induced paw edema at 10 mg/kg, po measured at 30 min by plethysmographic analysis (reference value: 4 +/- 0.28%); type: functional
Escherichia coli = test: Antibacterial activity against Escherichia coli ATCC 25922 assessed as growth inhibition after 24 hr by agar streak dilution method; type: functional; settings: ATCC 25922, 24 h
Mus musculus [10] = test: Analgesic activity in Mus musculus […] albino (mouse) at 20 mg/kg, po measured at 2 hr by tail flick test (reference value: 6 +/- 0.84%)
Mus musculus [11] = test: Analgesic activity in Mus musculus […] albino (mouse) at 10 mg/kg, po measured at 1 hr by tail flick test (reference value: 5 +/- 0.49%)
Rattus norvegicus [12] = test: Anti-inflammatory activity in Rattus norvegicus Wistar (rat) assessed as protection against carrageenan-induced paw edema at 10 mg/kg, po measured at 2 hr by plethysmographic analysis (reference value: 5 +/- 0.41%); type: functional
Staphylococcus aureus = test: Antibacterial activity against Staphylococcus aureus ATCC 9144 assessed as growth inhibition after 24 hr by agar streak dilution method; type: functional; settings: ATCC 9144, 24 h
Mus musculus [13] = test: Analgesic activity in Mus musculus […] albino (mouse) at 10 mg/kg, po measured at 3 hr by tail flick test (reference value: 3 +/- 0.41%)
Rattus norvegicus [14] = test: Ulcerogenecity in Rattus norvegicus Wistar albino (rat) stomach assessed as ulcer index administered 20 mg/kg, ip qd for 3 days measured on day 4 (reference value: 0.13 +/- 0.05 no unit); type: ADME, organism-based; design: dose 20 mg/kg, route intraperitoneal; settings: in vivo, 72 h
Rattus norvegicus [15] = test: Anti-inflammatory activity in Rattus norvegicus Wistar (rat) assessed as protection against carrageenan-induced paw edema at 20 mg/kg, po measured at 30 min by plethysmographic analysis (reference value: 4 +/- 0.28%); type: functional
Mus musculus [16] = test: Analgesic activity in Mus musculus […] albino (mouse) at 20 mg/kg, po measured at 1 hr by tail flick test (reference value: 5 +/- 0.49%)
Pseudomonas aeruginosa = test: Antibacterial activity against Pseudomonas aeruginosa […] assessed as growth inhibition after 24 hr by agar streak dilution method; type: functional
Mus musculus [17] = test: Analgesic activity in Mus musculus […] albino (mouse) at 10 mg/kg, po measured at 30 min by tail flick test (reference value: 4 +/- 0.72%)
Mus musculus [18] = test: Analgesic activity in Mus musculus […] albino (mouse) at 20 mg/kg, po measured at 3 hr by tail flick test (reference value: 3 +/- 0.41%)
Rattus norvegicus [19] = test: Ulcerogenecity in Rattus norvegicus Wistar albino (rat) stomach assessed as ulcer index administered 20 mg/kg, ip qd for 3 days measured on day 4 relative to aspirin; type: ADME, organism-based; design: dose 20 mg/kg, route intraperitoneal; settings: in vivo, 72 h
Rattus norvegicus [20] = test: Anti-inflammatory activity in Rattus norvegicus Wistar (rat) assessed as protection against carrageenan-induced paw edema at 20 mg/kg, po measured at 3 hr by plethysmographic analysis (reference value: 4 +/- 0.75%); type: functional
Aspergillus fumigatus = test: Antifungal activity against Aspergillus fumigatus ATCC 46645 assessed as growth inhibition after 48 hr by agar streak dilution method; type: functional; settings: ATCC 46645, 48 h
[21] = system: Staphylococcus epidermidis; test: Antibacterial activity against Staphylococcus epidermidis ATCC 155 assessed as growth inhibition after 24 hr by agar streak dilution method; type: functional; settings: ATCC 155, 24 h

Row | Compound | MIC (Micrococcus luteus) [µg/mL] | Activity (Mus musculus [2]) [%] | Activity (Rattus norvegicus [3]) [%] | MIC (Klebsiella pneumoniae) [µg/mL] | MIC (Aspergillus niger) [µg/mL] | Activity (Rattus norvegicus [4]) [%] | Activity (Rattus norvegicus [5]) [%] | MIC (Bacillus cereus) [µg/mL] | Activity (Mus musculus [6]) [%] | UI (Rattus norvegicus [7]) [%] | Activity (Rattus norvegicus [8]) [%] | Activity (Rattus norvegicus [9]) [%] | MIC (Escherichia coli) [µg/mL] | Activity (Mus musculus [10]) [%] | Activity (Mus musculus [11]) [%] | Activity (Rattus norvegicus [12]) [%] | MIC (Staphylococcus aureus) [µg/mL] | Activity (Mus musculus [13]) [%] | UI (Rattus norvegicus [14]) [no unit] | Activity (Rattus norvegicus [15]) [%] | other results
1 | CC(=O)Oc1ccccc1C(=O)O [ASPIRIN] |  |  |  |  |  |  |  |  |  |  |  |  |  |  |  |  |  |  |  |  | UI (Rattus norvegicus [1]): 1.79%
2 | Cc1nc2ccccc2c(=O)n1-c1ccc(NC(=O)CN/N=C/c2ccc(O)cc2)cc1 | 62.5 (≈ 146 µM) | 36 | 25 | 125 (≈ 292 µM) | 125 (≈ 292 µM) | 22 | 39 | 125 (≈ 292 µM) | 34 | 34 | 43 | 21 | 125 (≈ 292 µM) | 47 | 30 | 28 | 125 (≈ 292 µM) | 20 | 0.82 | 30 | Activity (Mus musculus [16]): 43%; MIC (Pseudomonas aeruginosa): 125 µg/mL (≈ 292 µM); Activity (Mus musculus [17]): 23%; Activity (Mus musculus [18]): 26%; UI (Rattus norvegicus [19]): 31%; Activity (Rattus norvegicus [20]): 29%; MIC (Aspergillus fumigatus): 62.5 µg/mL (≈ 146 µM); MIC [21]: 125 µg/mL (≈ 292 µM)
3 | Cc1nc2ccccc2c(=O)n1-c1ccc(NC(=O)CN/N=C/c2ccccc2)cc1 | 62.5 (≈ 152 µM) | 42 | 29 | 15.6 (≈ 38 µM) | 31.2 (≈ 75.9 µM) | 28 | 46 | 31.2 (≈ 75.9 µM) | 41 | 34 | 51 | 24 | 62.5 (≈ 152 µM) | 57 | 35 | 34 | 31.2 (≈ 75.9 µM) | 29 | 0.7 | 35 | Activity (Mus musculus [16]): 50%; MIC (Pseudomonas aeruginosa): 31.2 µg/mL (≈ 75.9 µM); Activity (Mus musculus [17]): 30%; Activity (Mus musculus [18]): 32%; UI (Rattus norvegicus [19]): 31%; Activity (Rattus norvegicus [20]): 32%; MIC (Aspergillus fumigatus): 31.2 µg/mL (≈ 75.9 µM); MIC [21]: 31.2 µg/mL (≈ 75.9 µM)
4 | Cc1nc2ccccc2c(=O)n1-c1ccc(NC(=O)CN/N=C/c2ccc(F)cc2)cc1 | 15.6 (≈ 36.4 µM) | 44 | 33 | 3.9 (≈ 9.08 µM) | 31.2 (≈ 72.8 µM) | 29 | 49 | 7.81 (≈ 18.2 µM) | 42 | 34 | 52 | 26 | 31.2 (≈ 72.8 µM) | 58 | 38 | 36 | 31.2 (≈ 72.8 µM) | 31 | 0.64 | 37 | Activity (Mus musculus [16]): 54%; MIC (Pseudomonas aeruginosa): 7.81 µg/mL (≈ 18.2 µM); Activity (Mus musculus [17]): 32%; Activity (Mus musculus [18]): 35%; UI (Rattus norvegicus [19]): 31%; Activity (Rattus norvegicus [20]): 36%; MIC (Aspergillus fumigatus): 15.6 µg/mL (≈ 36.4 µM); MIC [21]: 7.81 µg/mL (≈ 18.2 µM)
5 | Cc1nc2ccccc2c(=O)n1-c1ccc(NC(=O)CN/N=C/c2ccc(Cl)cc2)cc1 | 7.81 (≈ 17.5 µM) | 50 | 37 | 7.81 (≈ 17.5 µM) | 15.6 (≈ 35 µM) | 34 | 52 | 15.6 (≈ 35 µM) | 48 | 34 | 59 | 31 | 31.2 (≈ 70.1 µM) | 64 | 45 | 43 | 31.2 (≈ 70.1 µM) | 35 | 0.59 | 43 | Activity (Mus musculus [16]): 58%; MIC (Pseudomonas aeruginosa): 15.6 µg/mL (≈ 35 µM); Activity (Mus musculus [17]): 36%; Activity (Mus musculus [18]): 40%; UI (Rattus norvegicus [19]): 31%; Activity (Rattus norvegicus [20]): 42%; MIC (Aspergillus fumigatus): 7.81 µg/mL (≈ 17.5 µM); MIC [21]: 15.6 µg/mL (≈ 35 µM)

Reference: ChEMBL document CHEMBL3044568, “Synthesis, analgesic, anti-inflammatory, and in vitro antimicrobial activities of some novel quinazolin-4(3H)-one derivatives” (Med Chem Res, 2013)
